From US20020151568A1, “Piperidinylethyl-, phenoxyethyl-, and beta-fluorophenethyl-substituted thiourea compounds with potent anti-HIV activity” (priority 2000, published 2002)
pIC50: −log10 of the molar value. Like-named read-outs stand apart in the source and are kept apart here. Each block holds one compound with its values, some of them ahead of it.

What was measured:
[1] = test system: HIV-1 strain HTLVIIIB; test: Inhibition of HIV-1 HTLVIIIB replication in PBMC (p24 antigen EIA); type: cell-based; details: HIV-1 strain HTLVIIIB in human PBMC, p24 EIA on 7th day after infection; for pIC50: read-out: IC50 [HTL VIIIB]
Method: The cells were then infected with virus at a multiplicity of infection (MOI) of 0.1 during a one-hour adsorption period at 37° C. in a humidified 5% CO2 atmosphere. Subsequently, cells were cultured in 96-well microplates (100 μL/well; 2×10^6 cells/mL, triplicate wells) in the presence of various inhibitor concentrations. […] Ag. […] The applied p24 EIA was the unmodified kinetic assay commercially available from Coulter Corporation/Immunotech, Inc. (Westbrook, Me.).
To test the therapeutic activity of the compounds of the invention, p24 assays were utilized as previously described. […] 1 during a one-hour adsorption period at 37° C. in a humidified 5% CO2 atmosphere. Subsequently, cells were cultured in 96-well microliter plates ([…]; 2×10^6 cells/mL, triplicate wells) in the presence of various inhibitor concentrations. Aliquots of culture supernatants were removed from the wells on the 7th day after infection for p24 antigen p24 enzyme immunoassays (EIA).
The applied p24 EIA was the unmodified kinetic assay commercially available from Coulter Corporation/Immunotech, Inc. (Westbrooke, Me.), which utilizes a murine monoclonal antibody to HIV core protein coated onto microwell strips to which the antigen present in the test culture supernatant samples binds. Percent inhibition of viral replication was calculated by comparing the p24 values from the test substance treated infected cells with p24 values from untreated infected cells (i.e., virus controls).

[2] = test system: HIV-1 strain A17 (Y181C); test: Inhibition of replication of NNI-resistant HIV-1 strain A17 in PBMC; type: cell-based; details: for pIC50: read-out: IC50 A17 (Y181C)
Method: (§1) The ability of Compounds 4 (HI-516), 11 (HI-566), and 12 (HI-565) to inhibit the replication of NNI-resistant HIV-1 strains, A17 (Y181C) and RT-MDR (V106A), was analyzed. The anti-HIV activity of the compounds was measured by determining their ability to inhibit the replication of HIV-1 strains A17 in PBMC from healthy volunteer donors and RT-MDR in H9 cells.
(§2) Compounds 4, 11, and 12 were compared with nevirapine or delavirdine, two known non-nucleoside reverse transcriptase inhibitors of HIV-1 RT.

[3] = test system: HIV-1 strain RT-MDR (V106A); test: Inhibition of replication of NNI-resistant HIV-1 strain RT-MDR in H9 cells; type: cell-based
Method: as §1, §2

[4] = test system: human peripheral blood mononuclear cells (PBMC); test: Microculture Tetrazolium Assay (MTA, XTT) for cell viability of non-infected PBMC; type: cell-based; details: 7 days, read-out: CC (cytotoxic concentration, CC50)
Method: In parallel, the effects of various treatments on cell viability were also examined, as described in Enrice et.al., supra. In brief, non-infected PBNWC were treated with each compound for 7 days under identical experimental conditions. A Microculture Tetrazolium Assay (MTA), using 2,3-bis(2-methoxy-4nitro-5-sulfophenyl)-5-[(phenylarnino)-carbonyl]-2H-tetrazolium hydroxide (XTT), was performed to quantitate cellular proliferation.

[5] = A17 in PBMC from healthy volunteer donors
[6] = RT-MDR in H9 cells, read-out: IC50 RT-MDR (V106A)
[7] = Human immunodeficiency virus 1, PBMC
[8] = Human immunodeficiency virus 1, H9, read-out: IC50 RT-MDR (V106A)

SMILES: S=C(NCCN1CCCCC1)Nc1ccccn1 [Compound 1]
- pIC50 [1]: < 4.00

SMILES: S=C(NCCN1CCCCC1)Nc1ccc(Br)cn1 [Compound 2, N-[2-(1-piperidinylethyl)]-N′-[2-(5-bromopyridyl)]-thiourea]
- IC50 [HTL VIIIB] [1]: nanomolar concentrations
- pIC50 [1]: 8.70

SMILES: CC1CCCN(CCNC(=S)Nc2ccc(Br)cn2)C1 (stereo not drawn) [Compound 3, N-[2-(3-methylpiperidinylethyl)]-N′-[2-(5-bromopyridyl)]-thiourea]
- pIC50 [1]: 7.10

SMILES: CC1CCCCN1CCNC(=S)Nc1ccc(Br)cn1 (stereo not drawn) [Compound 4, N-[2-(2-methylpiperidinylethyl)]-N′-[2-(5-bromopyridyl)]-thiourea]
- IC50 A17 (Y181C) [2, 5]: not active
- pIC50 [2, 5]: < 4.00
- pIC50 [1]: > 9.00
- IC50 RT-MDR (V106A) ([3]; RT-MDR in H9 cells): less active than nevirapine or delavirdine
- pIC50 [3, 6]: 5.72
- CC50 [4]: 50000 nM

SMILES: S=C(NCCN1CCCCC1)Nc1ccc(Cl)cn1 [Compound 5, N-[2-(1-piperidinylethyl)]-N′-[2-(5-chloropyridyl)]-thiourea]
- IC50 [HTL VIIIB] [1]: nanomolar concentrations
- pIC50 [1]: 9.00

SMILES: CC1CCCN(CCNC(=S)Nc2ccc(Cl)cn2)C1 (stereo not drawn) [Compound 6, N-[2-(3-methylpiperidinylethyl)]-N′-[2-(5-chloropyridyl)]-thiourea]
- pIC50 [1]: 7.70

- melting point: 117 to 118 °C
- pIC50 ([1]; Human immunodeficiency virus 1): 9.00
SMILES: CC1CCCCN1CCCNC(=S)Nc1ccc(Cl)cn1 (stereo not drawn) [Compound 7, N-[3-(2-methylpiperidinylpropyl)]-N′-[2-(5-chloropyridyl)]-thiourea]

SMILES: S=C(NCCOc1ccccc1)Nc1ccccn1 [Compound 8, N-[2-(Phenoxy)ethyl]-N′-[2-(pyridyl)]thiourea]
- pIC50 [1]: 8.30
- CC50 [4]: 55000 nM

SMILES: S=C(NCCOc1ccccc1)Nc1ccc(Cl)cn1 [Compound 9, N-[2-(Phenoxy)ethyl]-N′-[2-(5-chloropyridyl)]thiourea]
- pIC50 [1]: 8.40
- CC50 [4]: > 100000 nM

SMILES: S=C(NCCOc1ccccc1)Nc1ccc(Br)cn1 [Compound 10, N-[2-(Phenoxy)ethyl]-N′-[2-(5-bromopyridyl)] thiourea]
- pIC50 [1]: 8.30
- CC50 [4]: 92000 nM

SMILES: FC(CNC(=S)Nc1ccc(Cl)cn1)c1ccccc1 (stereo not drawn) [Compound 11, β-Fluoro[2-phenethyl]-N′-[2-(5-chloropyridyl)] thiourea]
- pIC50 [2, 5]: 7.00
- IC50 [HTL VIIIB] [1]: subnanomolar
- pIC50 [1]: > 9.00
- IC50 RT-MDR (V106A) ([3]; RT-MDR in H9 cells): submicromolar
- pIC50 [3, 6]: 7.00
- CC50 [4]: 30000 nM

SMILES: FC(CNC(=S)Nc1ccc(Br)cn1)c1ccccc1 (stereo not drawn) [Compound 12, β-Fluoro[2-phenethyl]-N′-[2-(5-bromopyridyl)]thiourea]
- pIC50 [2, 5]: 7.00
- IC50 [HTL VIIIB] [1]: subnanomolar
- pIC50 [1]: > 9.00
- IC50 RT-MDR (V106A) ([3]; RT-MDR in H9 cells): submicromolar
- pIC50 [3, 6]: 6.70
- CC50 [4]: 50000 nM

SMILES: CC(C)Nc1cccnc1N1CCN(C(=O)c2cc3cc(NS(C)(=O)=O)ccc3[nH]2)CC1 [Delavirdine, reference compound]
- pIC50 [2, 7]: 4.30
- pIC50 [3, 8]: 6.40

SMILES: Cc1ccnc2c1NC(=O)c1cccnc1N2C1CC1 [Nevirapine, reference compound]
- pIC50 [2, 7]: 4.67
- pIC50 [3, 8]: 5.85

SMILES: S=C(NCCc1ccccn1)Nc1ccc(Br)cn1 [Trovirdine, reference compound]
- pIC50 [1]: 8.15
- CC50 [4]: 100000 nM
